Source: PubChem BioAssay (NCI)
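Compound exposure: 48 hours, 5 concentrations, 96-well plates. Here, GI50 denotes the concentration required for 50% inhibition of growth. TGI denotes the concentration required for complete inhibition of growth.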

How the values were obtained:
Assay in all cases: NCI tumour cell line growth inhibition, 48 h
[1] = system: K-562 leukemia
[2] = system: NCI-H522 lung
[3] = system: A549 NSCLC
[4] = system: NCI-H23 lung
[5] = system: UO-31 renal
[6] = system: COLO 205 colon
[7] = system: CCRF-CEM leukemia
[8] = system: M14 melanoma
[9] = system: LOX IMVI melanoma
[10] = system: DMS 273 small cell lung

| SMILES | GI50 [1] [µM] | TGI [1] [µM] | GI50 [2] [µM] | TGI [2] [µM] | GI50 [3] [µM] | TGI [3] [µM] | GI50 [4] [µM] | TGI [4] [µM] | GI50 [5] [µM] | TGI [5] [µM] | GI50 [6] [µM] | TGI [6] [µM] | GI50 [7] [µM] | TGI [7] [µM] | GI50 [8] [µM] | TGI [8] [µM] | GI50 [9] [µM] | TGI [9] [µM] | TGI [10] [µM] |
| --- | --- | --- | --- | --- | --- | --- | --- | --- | --- | --- | --- | --- | --- | --- | --- | --- | --- | --- | --- |
| O=C(Nc1cccc(-n2ccc3c(NC(=O)c4ccccc4)nccc32)c1)Nc1cc(C(F)(F)F)cc(C(F)(F)F)c1 | 1.68 | > 50 | 0.83 | 2.69 | 1.97 | > 50 | 1.96 | > 50 | 2.4 | > 50 | 1.68 | 5.29 | 1.76 | > 50 | 1.11 | 2.56 | 2.12 | > 50 | – |
| CC(NC(=O)C(C)NC(=O)C(N)CCP(C)(=O)O)C(=O)O (centres undefined) | – | > 100 | – | > 100 | – | > 100 | – | > 100 | – | > 100 | – | > 100 | – | > 100 | – | – | – | > 100 | > 100 |
| Nc1nc(SCc2ccc([N+](=O)[O-])cc2)nc2c1ncn2C1OC(COP(=O)(O)O)C(O)C1O (centres undefined) | – | > 100 | – | > 100 | – | > 100 | – | > 100 | – | – | – | > 100 | – | > 100 | – | > 100 | – | > 100 | > 100 |
| N[C@H](C(=O)O)[C@H]1ON=C(Cl)[C@@H]1O | 4.15 | > 550 | > 25.8 | 62.6 | 3.79 | > 550 | 5.09 | > 550 | – | 441 | 3.27 | > 550 | 5.15 | > 246 | – | > 66.9 | 1.54 | > 550 | > 550 |
| CCOP(=O)(OCC)/C(C#N)=C/c1cn(C)cn1 | – | > 100 | – | > 100 | – | > 100 | – | > 100 | – | > 100 | – | > 100 | – | > 100 | – | > 100 | – | – | – |
| O=S(=O)(CCBr)CCBr | – | > 48.8 | – | 3.11 | – | 27.8 | – | 18.7 | – | > 100 | – | 12.7 | – | > 30.2 | – | – | – | 21.8 | 15.1 |
| CC1=Nc2nc(Cl)cn2C(=O)C1(Cl)Cl | – | > 10 | – | > 10 | – | > 10 | – | > 10 | – | > 10 | – | > 10 | – | > 10 | – | > 10 | – | > 10 | – |
| Cc1ccc(N=N/C(=N\NC(=O)c2ccc(C)cc2)c2ccc(N(CCC#N)CCC#N)cc2C)cc1 | – | > 100 | – | – | – | > 100 | – | > 100 | – | > 100 | – | > 100 | – | > 100 | – | 91.8 | – | > 100 | – |
| C[Si](C)(OCCS(=O)(=O)O)C1(Cc2cccc3ccccc23)S(=O)(=O)OCCOS1(=O)=O | – | > 100 | – | 30.5 | – | 65.2 | – | 96 | – | 32.4 | – | 25.3 | – | 45.9 | – | 46.1 | – | 34 | – |
| Cc1ccc(N2Cc3c(ccc4ccccc34)OP2(=O)Oc2ccc(Cl)c(C)c2)cc1 (centres undefined) | – | > 100 | – | > 100 | – | > 100 | – | > 100 | – | > 100 | – | > 100 | – | > 100 | – | – | – | > 100 | > 100 |
| COc1ccc(-n2cnnc2-c2nsc3ccccc23)cc1 | – | > 100 | – | – | – | > 100 | – | > 100 | – | > 100 | – | > 100 | – | > 100 | – | > 100 | – | > 100 | > 100 |
